Measured values reported in US20150284399A1, “PROCESSES FOR THE PREPARATION OF S1P1 RECEPTOR MODULATORS AND CRYSTALLINE FORMS THEREOF” (Arena Pharmaceuticals, Inc., priority 2010, published 2015).

Legend:
Male Sprague-Dawley rats = test: Rat Peripheral Lymphocyte Lowering (PLL) assay; format: in vivo; conditions: 1.0 mg/kg oral dose in 0.5% methyl cellulose in water; 5 h post-dose; vs vehicle; FIG. 16
Description: Male Sprague-Dawley rats (Charles River Laboratories, Hollister, Calif.) were housed and maintained in humidity (40 to 60%) and temperature (68 to 72° F.) controlled facility on a 12 h: 12 h light/dark cycle (lights on at 6:30 am) with free access to food (Harlan Teklad, Orange, Calif., Rodent Diet 8604) and water. Rats were allowed (approximately) one week of habituation to the animal facility before testing.
Rats were given a 1.0 mg/kg oral dose of (R)-2-(9-chloro-7-(4-isopropoxy-3-(trifluoromethyl)benzyloxy)-2,3-dihydro-1H-pyrrolo[1,2-a]indol-1-yl)acetic acid or dosing vehicle (0.5% methyl cellulose in water) in a total volume of 1 mL/kg. Peripheral blood samples were collected at 5 h post-dose. Blood was collected via indwelling catheter. A complete cell count (CBC), including lymphocyte count, was obtained using a CELL-DYN® 3700 (Abbott Laboratories, Abbott Park, Ill.) instrument. Results are presented in FIG. 16, in which peripheral blood lymphocyte (PBL) count is shown for the 5 hour group.

S1P1 receptor = target: T1, S1P1 receptor (Homo sapiens, UniProt P21453); test: HTRF assay for direct cAMP measurement; format: cell-based; conditions: recombinant CHO-K1 cells stably transfected with S1P1; agonist detected as decrease of cAMP concentration
T1 construct: expressed in transfected cells; host or cells: CHO-K1 (ATCC CCL-61), stably transfected
Excerpt: Compounds were screened for agonists of the S1P1 receptor (e.g., human S1P1 receptor) using the HTRF® assay for direct cAMP measurement (Gabriel et al., Assay and Drug Development Technologies, 1:291-303, 2003) and recombinant CHO-K1 cells stably transfected with S1P1. CHO-K1 cells were obtained from ATCC® (Manassas, Va.; Catalog #CCL-61). An agonist of the S1P1 receptor was detected in the HTRF® assay for direct cAMP measurement as a compound which decreased cAMP concentration. HTRF® assay also was used to determine EC50 values for S1P1 receptor agonists.
HTRF® assay kit was purchased from Cisbio-US, Inc. (Bedford, Mass.; Catalog #62AM4PEC). […] The specific signal (i.e., fluorescence resonance energy transfer, FRET) is inversely proportional to the concentration of unlabeled cAMP in the standard or sample.
The fluorescence ratio (665 nm/620 nm) of the standards (0.17 to 712 nM cAMP) included in the assay was calculated and used to generate a cAMP standard curve according to the kit manufacturer's instructions. The fluorescence ratio of the samples (test compound or compound buffer) was calculated and used to deduce respective cAMP concentrations by reference to the cAMP standard curve. […]
HTRF® readout was accomplished using a PHERAstar (BMG LABTECH Inc., Durham, N.C.) or EnVision™ (PerkinElmer, Fremont Calif.) microplate reader.

[1] = Dynamic moisture sorption (DMS); format: physicochemical; conditions: crystalline form
Description: Samples are prepared for dynamic moisture-sorption analysis by placing ˜5 mg to ˜20 mg of compound in a tarred sample holder on the VTI balance. The instrument is a dynamic moisture-sorption analyzer, VTI Corporation, SGA-100. A drying step is run at 40° C. and ˜1% RH for 1 h. The isotherm temperature is 25° C. A % weight change over 10 min (5 weight readings) of dm/dt=0.010 or 2 h, whichever occurs first, is required before continuing to the next step. The water content of the sample equilibrated as described above was determined from 30% RH to 90% RH and then back down to 10% RH.

T1 sequence (P21453 whole entry): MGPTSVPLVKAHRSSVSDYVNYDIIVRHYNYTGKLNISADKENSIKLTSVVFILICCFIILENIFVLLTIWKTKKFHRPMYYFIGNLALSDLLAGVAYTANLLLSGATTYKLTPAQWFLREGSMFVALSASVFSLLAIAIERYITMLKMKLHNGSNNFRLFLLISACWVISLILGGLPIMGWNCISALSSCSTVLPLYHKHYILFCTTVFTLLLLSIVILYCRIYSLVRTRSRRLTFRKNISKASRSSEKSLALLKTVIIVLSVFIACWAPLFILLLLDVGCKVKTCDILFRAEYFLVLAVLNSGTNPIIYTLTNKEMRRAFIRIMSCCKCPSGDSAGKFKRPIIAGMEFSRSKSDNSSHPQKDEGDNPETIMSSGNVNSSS

Compound: CC(C)Oc1ccc(COc2ccc3c(c2)c(Cl)c2n3CC[C@@H]2CC(=O)O)cc1C(F)(F)F [(R)-2-(9-chloro-7-(4-isopropoxy-3-(trifluoromethyl)benzyloxy)-2,3-dihydro-1H-pyrrolo[1,2-a]indol-1-yl)acetic acid]
- peripheral blood lymphocyte (PBL) lowering (lymphopenia) (Male Sprague-Dawley rats): exhibited activity for inducing PBL lowering (lymphopenia)
- EC50 (S1P1 receptor): 0.028 nM
- hygroscopicity (DMS) ([1]; 10% RH to 90% RH at 25° C.): non-hygroscopic
- DMS weight gain over the full range of % RH tested ([1]; 10% RH to 90% RH at 25° C., listed as Crystalline form of (R)-2-(9-chloro-7-(4-isopropoxy-3-(trifluoromethyl)benzyloxy))): FIG. 3: gains less than about 0.1% weight over the full range
- DMS weight gain over the full range of % RH tested ([1]; 10% RH to 90% RH at 25° C., listed as crystalline form of (R)-2-(9-chloro-7-(4-isopropoxy-3-(trifluoromethyl)benzyloxy))): less than 0.1 % weight
- DMS maximum weight gain ([1]; adsorption phase of the DMS cycle at about 70% RH): about 0.06%
